Assay results taken from US10308660B2, “Compounds and compositions for inhibiting the activity of SHP2” (Novartis AG, priority 2015, dated 2019).

target: SHP2 (Homo sapiens (Human), UniProt Q06124); assay: SHP2 allosteric inhibition assay (DiFMUP prompt fluorescence); type: biochemical; settings: 0.5 nM SHP2 activated with 0.5 μM peptide IRS1_pY1172(dPEG8)pY1222; substrate DiFMUP; 25° C.

Compound | IC50 [nM]
Cc1ccc(-c2c(N)nc(N3CCC4(CC3)C[C@@H](C)C[C@H]4N)n(C)c2=O)cc1Cl [Example 124] | 10
C[C@@H]1OCC2(CCN(c3nc(N)c(-c4cccc(F)c4F)c(=O)n3C)CC2)[C@@H]1N [Example 143] | 28
Cn1c(N2CCC3(CC2)C[C@@H](C(F)(F)F)C[C@H]3N)nc(N)c(Sc2cccnc2C(F)(F)F)c1=O [Example 84] | 72
CC1(CN)CCN(c2ncc(-c3cccc(Cl)c3Cl)c(=O)[nH]2)CC1 [Example 200] | > 100000
Cn1c(N2CCC(C)(CN)CC2)nc(N)c(Sc2ccnc(N)c2Cl)c1=O [Example 4] | 53
C[C@H]1C[C@@H](N)C2(CCN(c3nc(N)c(Sc4cccnc4Cl)c(=O)n3C)CC2)C1 [Example 66] | 20
C[C@@H]1OCC2(CCN(c3nc(N)c(-c4cccc(Cl)c4)c(=O)n3C)CC2)[C@@H]1N [Example 135] | 19
Cn1c(N2CCC3(CC2)CC(F)(F)C[C@H]3N)nc(N)c(Sc2cccnc2C(F)(F)F)c1=O [Example 43] | 18
C[C@@H]1OCC2(CCN(c3nc(N)c(-c4ccc(F)c(Cl)c4)c(=O)n3C)CC2)[C@@H]1N [Example 158] | 53
CC1(CN)CCN(c2ncc(Sc3cccc(Cl)c3Cl)c(=O)[nH]2)CC1 [Example 93] | 65
Cn1c(N2CCC(C)(CN)CC2)nc(N)c(Sc2cccc(OC(F)(F)F)c2)c1=O [Example 11] | 441
C[C@@H]1OCC2(CCN(c3nc(N)c(Sc4ccccc4)c(=O)n3C)CC2)[C@@H]1N [Example 26] | 82
C[C@@H]1OCC2(CCN(c3nc(N)c(Sc4ccnc(N)c4Cl)c(=O)n3C)CC2)[C@@H]1N [Example 3] | 44
C[C@@H]1OCC2(CCN(c3nc(N)c(-c4ccc(F)cc4)c(=O)n3C)CC2)[C@@H]1N [Example 146] | 38
Cn1c(N2CCC3(CC2)CC(F)(F)C[C@H]3N)nc(N)c(Sc2ccc(F)cc2Cl)c1=O [Example 82] | 25
Cc1nc(N2CCC3(CC2)CO[C@@H](C)[C@H]3N)n(C)c(=O)c1Sc1cccnc1C(F)(F)F [Example 122] | 68
C[C@@H]1OCC2(CCN(c3nc(N)c(Sc4cccnc4OC(F)(F)F)c(=O)n3C)CC2)[C@@H]1N [Example 22] | 108
C[C@H]1C[C@@H](N)C2(CCN(c3nc(N)c(Sc4ccnc(N)c4Cl)c(=O)n3C)CC2)C1 [Example 21] | 28
Cn1c(N2CCC(C)(CN)CC2)ncc(Sc2ccccc2C(F)(F)F)c1=O [Example 108] | 500
Cn1c(N2CCC(C)(CN)CC2)nc(N)c(-c2cccc(Cl)c2Cl)c1=O [Example 193] | 40
C[C@H]1C[C@@H](N)C2(CCN(c3nc(N)c(Sc4ccnc(Cl)c4C(F)(F)F)c(=O)n3C)CC2)C1 [Example 73] | 71
C[C@@H]1OCC2(CCN(c3nc(N)c(-c4cc(Cl)ccc4Cl)c(=O)n3C)CC2)[C@@H]1N [Example 186] | 2230

Compound | IC50 [nM]
C[C@@H]1OCC2(CCN(c3nc(N)c(-c4cc(Cl)cc(Cl)c4Cl)c(=O)n3C)CC2)[C@@H]1N [Example 180] | 515
CCOc1nccc(Sc2cnc(N3CCC4(CC3)CO[C@@H](C)[C@H]4N)n(C)c2=O)c1Cl [Example 102] | 10
Cn1c(N2CCC3(CC2)CC(F)(F)C[C@H]3N)nc(N)c(-c2cccc(Cl)c2Cl)c1=O [Example 137] | 22
COc1nccc(Sc2c(N)nc(N3CCC4(CC3)CO[C@@H](C)[C@H]4N)n(C)c2=O)c1Cl [Example 23] | 23
C[C@@H]1OCC2(CCN(c3nc(N)c(-c4ccc(OCc5ccccc5)cc4)c(=O)n3C)CC2)[C@@H]1N [Example 149] | 43
C[C@@H]1OCC2(CCN(c3nc(N)c(Sc4ccnc(N5CCCC5)c4Cl)c(=O)n3C)CC2)[C@@H]1N [Example 28] | 28
C[C@@H]1OCC2(CCN(c3nc(N)c(-c4ccc(F)c(F)c4)c(=O)n3C)CC2)[C@@H]1N [Example 133] | 17
CC[C@@H]1OCC2(CCN(c3nc(N)c(-c4ccccc4)c(=O)n3C)CC2)[C@@H]1N [Example 144] | 34
C[C@@H]1OCC2(CCN(c3nc(N)c(Sc4cccc5c4OCO5)c(=O)n3C)CC2)[C@@H]1N [Example 78] | 12
COc1ccc(Sc2c(N)nc(N3CCC4(CC3)CO[C@@H](C)[C@H]4N)n(C)c2=O)cc1F [Example 79] | 370
C[C@@H]1OCC2(CCN(c3nc(N)c(-c4cccc(Cl)c4Cl)c(=O)n3C)CC2)[C@@H]1N [Example 132] | 16
Cn1c(N2CCC3(CC2)C[C@H](C(F)(F)F)C[C@H]3N)nc(N)c(Sc2cccnc2C(F)(F)F)c1=O [Example 83] | 56
Cn1c(N2CCC(C)(CN)CC2)ncc(Sc2cccc(Cl)c2Cl)c1=O [Example 98, 2-(4-(aminomethyl)-4-methylpiperidin-1-yl)-5-((2,3-dichlorophenyl)thio)-3-methylpyrimidin-4(3H)-one] | 68
Cn1c(N2CCC(C)(CN)CC2)ncc(Sc2ccccc2Cl)c1=O [Example 99] | 375
C[C@@H]1OCC2(CCN(c3nc(N)c(Sc4cccc(N)c4C(F)(F)F)c(=O)n3C)CC2)[C@@H]1N [Example 31] | 20
C[C@@H]1OCC2(CCN(c3nc(N)c(-c4ccnc(Cl)c4)c(=O)n3C)CC2)[C@@H]1N [Example 187] | 2950
C[C@@H]1CC2(CCN(c3nc(N)c(Sc4ccnc(N)c4Cl)c(=O)n3C)CC2)[C@H](N)[C@@H]1F (single isomer, unassigned) [Example 38] | 30
Cn1c(N2CCC(C)(CN)CC2)ncc(Sc2cccnc2C(F)(F)F)c1=O [Example 100] | 631
C[C@H]1C[C@@H](N)C2(CCN(c3nc(N)c(-c4cccc(F)c4F)c(=O)n3C)CC2)C1 [Example 126] | 12
CCOc1nccc(Sc2c(N)nc(N3CCC4(CC3)CO[C@@H](C)[C@H]4N)n(C)c2=O)c1Cl [Example 30] | 32
C[C@@H]1OCC2(CCN(c3nc(N)c(-c4ccc(C5CCOCC5)cc4)c(=O)n3C)CC2)[C@@H]1N [Example 178] | 412
C[C@@H]1OCC2(CCN(c3nc(N)c(-c4ccccc4F)c(=O)n3C)CC2)[C@@H]1N [Example 153] | 46

More lines, in order of falling IC50, values ahead:

IC50 [nM] | Compound
1690 | C[C@@H]1OCC2(CCN(c3nc(N)c(-c4cccc(C(F)(F)F)c4)c(=O)n3C)CC2)[C@@H]1N [Example 184]
721 | Cn1c(N2CCC(C)(CN)CC2)nc(N)c(Sc2ccccc2O)c1=O [Example 52]
609 | Cn1c(N2CCC(C)(CN)CC2)nc(N)c(Sc2ccc(N)cc2Cl)c1=O [Example 53]
391 | Cn1c(N2CCC(C)(CN)CC2)nc(N)c(Sc2ccccc2C#N)c1=O [Example 51]
369 | Cc1nc(N2CCC3(CC2)CO[C@@H](C)[C@H]3N)n(C)c(=O)c1-c1ccccc1 [Example 197]
300 | Cn1c(N2CCC(C)(CN)CC2)nc(N)c(Sc2ccccc2[N+](=O)[O-])c1=O [Example 48]
256 | C[C@@H]1OCC2(CCN(c3nc(N)c(-c4ccc(C#N)cc4)c(=O)n3C)CC2)[C@@H]1N [Example 175]
200 | Cc1ccccc1Sc1c(N)nc(N2CCC(C)(CN)CC2)n(C)c1=O [Example 54]
183 | C[C@@H]1OCC2(CCN(c3nc(N)c(-c4ccc(C(C)(C)C)cc4)c(=O)n3C)CC2)[C@@H]1N [Example 174]
175 | COc1ccc(-c2c(N)nc(N3CCC4(CC3)CO[C@@H](C)[C@H]4N)n(C)c2=O)cc1C [Example 173]
169 | COCCOc1ccc(-c2c(N)nc(N3CCC4(CC3)CO[C@@H](C)[C@H]4N)n(C)c2=O)cc1 [Example 170]
152 | Cn1c(N2CCC(C)(CN)CC2)nc(N)c(Sc2cccc3c2OC(F)(F)O3)c1=O [Example 50]
119 | C[C@@H]1OCC2(CCN(c3nc(N)c(-c4ccc(OC(F)(F)F)cc4)c(=O)n3C)CC2)[C@@H]1N [Example 169]
93 | C[C@@H]1OCC2(CCN(c3nc(N)c(Sc4ccncc4C(F)(F)F)c(=O)n3C)CC2)[C@@H]1N [Example 61]
83 | Cn1c(N2CCC(C)(CN)CC2)ncc(Sc2ccnc(Cl)c2Cl)c1=O [Example 115]
83 | COc1nccc(Sc2ccc(N3CCC4(CC3)CO[C@@H](C)[C@H]4N)[nH]c2=O)c1Cl [Example 119]
77 | Cn1c(N2CCC3(CC2)CC(F)(F)C[C@H]3N)nc(N)c(Sc2ccccc2Cl)c1=O [Example 85]
75 | C[C@@H]1OCC2(CCN(c3nc(N)c(-c4cc(F)cc(F)c4)c(=O)n3C)CC2)[C@@H]1N [Example 164]
69 | Cn1c(N2CCC3(CC2)COC[C@H]3N)nc(N)c(-c2cccc(Cl)c2Cl)c1=O [Example 190]
60 | Cc1nc(N2CCC3(CC2)CO[C@@H](C)[C@H]3N)n(C)c(=O)c1Sc1ccnc(N)c1Cl [Example 121, 5-((2-amino-3-chloropyridin-4-yl)thio)-2-((3S,4S)-4-amino-3-methyl-2-oxa-8-azaspiro[4.5]decan-8-yl)-3,6-dimethylpyrimidin-4(3H)-one]
57 | C[C@@H]1CC2(CCN(c3nc(N)c(Sc4ccnc(N)c4Cl)c(=O)n3C)CC2)[C@H](N)C1(F)F [Example 34]
52 | COc1ccc(-c2c(N)nc(N3CCC4(CC3)CO[C@@H](C)[C@H]4N)n(C)c2=O)cc1F [Example 157]
44 | Cn1c(N2CCC3(CC2)CC(F)(F)C[C@H]3N)nc(N)c(-c2ccccc2)c1=O [Example 150]
43 | Cn1c(N2CCC3(CC2)C[C@@H](C(F)(F)F)C[C@H]3N)nc(N)c(-c2cccc(Cl)c2Cl)c1=O [Example 148]
38 | C[C@@H]1OCC2(CCN(c3nc(N)c(Sc4cccc(N)c4Cl)c(=O)n3C)CC2)[C@@H]1N [Example 25]
37 | Cn1c(N2CCC3(CC2)COC[C@H]3N)ncc(Sc2cccc(Cl)c2Cl)c1=O [Example 101]
24 | Cn1c(N2CCC3(CC2)C[C@H](F)C[C@H]3N)nc(N)c(Sc2cccnc2C(F)(F)F)c1=O [Example 35]
22 | Cn1c(N2CCC3(CC2)COC[C@H]3N)nc(N)c(Sc2ccnc(N)c2Cl)c1=O [Example 16]
15 | C[C@@H]1OCC2(CCN(c3ccc(Sc4cccc(Cl)c4Cl)c(=O)[nH]3)CC2)[C@@H]1N [Example 120]
